From the supplement of paper PMC11061612

Experiments:
FU97 (Gastric Carcinoma) = experiment: combination Emax (second highest fraction inhibited in the dose matrix, 72 h); higher = more inhibition; extreme values may be limits of the assay
Procedure, shortened: (§1)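 Bliss excess equals the observed combination effect minus the expected value EA + EB − EA·EB, where EA and EB are the effects of each agent alone. Combination Emax is the second-highest inhibition within the matrix. Inhibition was scaled from CellTiter-Glo 2.0 luminescence, with 0 set by vehicle wells and 1 by blank wells, after 72 hours of two-drug dosing of cells plated in 1536-well plates.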

[1] = tested on: NCI-H1666 (Lung Adenocarcinoma); experiment: as above
Procedure, shortened: as §1

[2] = tested on: HCC1954 (Breast Carcinoma); experiment: as above
Procedure, shortened: as §1

[3] = tested on: NCI-H64 (Small Cell Lung Carcinoma); experiment: Bliss excess, mean over the matrix (fraction); higher = more synergy
Procedure, shortened: as §1

NY (Osteosarcoma) = experiment: as above
Procedure, shortened: as §1

[4] = tested on: NCI-H2141 (Small Cell Lung Carcinoma); experiment: as above
Procedure, shortened: as §1

PA-1 (Ovarian Carcinoma) = experiment: as above
Procedure, shortened: as §1

[5] = tested on: COLO-320-HSR (Colorectal Carcinoma); experiment: as above
Procedure, shortened: as §1

[6] = tested on: A549 (Lung Adenocarcinoma); experiment: as above
Procedure, shortened: as §1

[7] = tested on: OS-RC-2 (Kidney Carcinoma); experiment: as above
Procedure, shortened: as §1

LN-405 (Glioblastoma) = experiment: as above
Procedure, shortened: as §1

[8] = tested on: HCC1954 (Breast Carcinoma); experiment: as above
Procedure, shortened: as §1

[9] = tested on: TT2609-C02 (Thyroid Gland Carcinoma); experiment: as above
Procedure, shortened: as §1

8-MG-BA (Glioblastoma) = experiment: as above
Procedure, shortened: as §1

[10] = tested on: NCI-H1693 (Lung Adenocarcinoma); experiment: as above
Procedure, shortened: as §1

[11] = tested on: ECC10 (Gastric Carcinoma); experiment: as above
Procedure, shortened: as §1

[12] = tested on: MDST8 (Colorectal Carcinoma); experiment: as above
Procedure, shortened: as §1

[13] = tested on: VCaP (Prostate Carcinoma); experiment: as above
Procedure, shortened: as §1

IGR-37 (Melanoma) = experiment: as above
Procedure, shortened: as §1

[14] = tested on: PANC-10-05 (Pancreatic Carcinoma); experiment: as above
Procedure, shortened: as §1

| SMILES | combination Emax (FU97 (Gastric Carcinoma)) | combination Emax [1] | combination Emax [2] | Bliss excess [3] | Bliss excess (NY (Osteosarcoma)) | Bliss excess [4] | Bliss excess (PA-1 (Ovarian Carcinoma)) | Bliss excess [5] | Bliss excess [6] | Bliss excess [7] | Bliss excess (LN-405 (Glioblastoma)) | Bliss excess [8] | Bliss excess [9] | Bliss excess (8-MG-BA (Glioblastoma)) | Bliss excess [10] | Bliss excess [11] | Bliss excess [12] | Bliss excess [13] | Bliss excess (IGR-37 (Melanoma)) | Bliss excess [14] |
| --- | --- | --- | --- | --- | --- | --- | --- | --- | --- | --- | --- | --- | --- | --- | --- | --- | --- | --- | --- | --- |
| Cc1c2c(nn1C)CSCc1cc(n(C)n1)CSc1cc(c3ccccc3c1)OCCCc1c(C(=O)O)n(C)c3c-2c(Cl)ccc13 [AZD5991] + Cc1cc2ncnn2cc1Nc1ncc2c(n1)n(C1CCOCC1)c(=O)n2C [AZD7648] (first compound max 1 µM, 7x7, partner max 10 µM) | 0.293 | 0.246 | 0.992 | -0.0186 | -0.0319 | -0.0101 | -0.0774 | -0.0184 | -0.111 | -0.068 | -0.0439 | -0.0095 | -0.038 | 0.0218 | -0.026 | -0.0409 | -0.0487 | -0.0067 | 0.0039 | -0.0758 |
| CN(CCO)CC[C@H](CSc1ccccc1)Nc1ccc(S(=O)(=O)NC(=O)c2ccc(N3CCC([C@@H](O)c4ccccc4-c4ccc(Cl)cc4)CC3)cc2)cc1S(=O)(=O)C(F)(F)F [AZD4320] + C=CCn1c(=O)c2cnc(Nc3ccc(N4CCN(C)CC4)cc3)nc2n1-c1cccc(C(C)(C)O)n1 [AZD1775] (first compound max 1 µM, partner max 1 µM) | 0.454 | 0.302 | 0.718 | 0.0886 | 0.0694 | 0.0423 | 0.0773 | -0.0268 | -0.0429 | -0.0254 | 0.0173 | 0.0823 | -0.0244 | -0.0417 | -0.0047 | 0.136 | 0.0362 | 0.0072 | 0.0354 | -0.0174 |
| CS(=O)(=O)CCNCc1ccc(-c2ccc3ncnc(Nc4ccc(OCc5cccc(F)c5)c(Cl)c4)c3c2)o1 [Lapatinib] + C[C@@H](Oc1cc(-c2cnn(C3CCNCC3)c2)cnc1N)c1c(Cl)ccc(F)c1Cl [Crizotinib] (first compound max 10 µM, 7x7, partner max 10 µM) | 0.81 | 0.833 | 0.91 | -0.0564 | -0.0118 | -0.0758 | 0.0128 | -0.0416 | -0.0606 | -0.0186 | -0.0158 | 0.0048 | -0.023 | -0.0365 | -0.0069 | -0.0434 | -0.0095 | -0.0653 | -0.0432 | -0.109 |
| Cc1c2c(nn1C)CSCc1cc(n(C)n1)CSc1cc(c3ccccc3c1)OCCCc1c(C(=O)O)n(C)c3c-2c(Cl)ccc13 [AZD5991] + C[C@@H]1COCCN1C2=NC(=NC(=C2)C3(CC3)[S@](=N)(=O)C)C4=C5C=CNC5=NC=C4 [AZD6738] (first compound max 1 µM, 7x7, partner max 10 µM) | 0.392 | 0.322 | 0.991 | 0.0193 | 0.0486 | 0.0675 | 0.0702 | 0.0363 | 0.0007 | 0.0211 | 0.0493 | 0.0518 | 0.0043 | 0.0326 | 0.0316 | 0.0683 | – | 0.0348 | 0.124 | 0.0415 |
| COc1cc2c(cc1OCCCCCOc1cc3c(cc1OC)C(=O)N1C=C(C)C[C@H]1C=N3)N=C[C@@H]1CC(C)=CN1C2=O [SG3199] + O=C(c1cc(Cc2n[nH]c(=O)c3ccccc23)ccc1F)N1CCN(C(=O)C2CC2)CC1 [Olaparib] (first compound max 0.001 µM, 7x7, partner max 10 µM) | 0.156 | 0.0849 | 0.165 | -0.0539 | -0.0456 | -0.0682 | 0.0131 | -0.0213 | -0.0226 | -0.0484 | 0.0323 | -0.0356 | -0.0234 | 0.011 | -0.0209 | -0.0238 | -0.0151 | -0.0455 | -0.0238 | -0.0598 |
| C[C@@H](c1ccc2nccn2c1)n1nnc2ncc(-c3cnn(C)c3)nc21 [Savolitinib] + CN(CC[C@H](CSC1=CC=CC=C1)NC2=C(C=C(C=C2)S(=O)(=O)NC(=O)C3=CC=C(C=C3)N4CCC(CC4)[C@H](C5=CC=CC=C5C6=CC=C(C=C6)Cl)O)S(=O)(=O)C(F)(F)F)CCO [AZD4320] (first compound max 1 µM, 7x7, partner max 1 µM) | – | – | 0.412 | – | – | -0.0695 | -0.0096 | – | -0.0576 | -0.0618 | -0.0518 | -0.0198 | -0.103 | -0.0399 | -0.0491 | – | -0.0668 | – | – | – |
| CN(CCO)CC[C@H](CSc1ccccc1)Nc1ccc(S(=O)(=O)NC(=O)c2ccc(N3CCC([C@@H](O)c4ccccc4-c4ccc(Cl)cc4)CC3)cc2)cc1S(=O)(=O)C(F)(F)F [AZD4320] + C[C@@H]1COCCN1C2=NC(=NC(=C2)C3(CC3)[S@](=N)(=O)C)C4=C5C=CNC5=NC=C4 [AZD6738] (first compound max 1 µM, 7x7, partner max 10 µM) | 0.383 | 0.418 | 0.734 | -0.0404 | 0.0125 | – | 0.0242 | 0.0161 | -0.0778 | -0.0807 | 0.0063 | 0.0289 | -0.0542 | 0.0107 | -0.0055 | -0.0256 | -0.0578 | -0.0287 | 0.0151 | -0.0476 |
| CC(=O)c1c(C)c2cnc(Nc3ccc(N4CCNCC4)cn3)nc2n(C2CCCC2)c1=O [Palbociclib] + CN(CC[C@H](CSC1=CC=CC=C1)NC2=C(C=C(C=C2)S(=O)(=O)NC(=O)C3=CC=C(C=C3)N4CCC(CC4)[C@H](C5=CC=CC=C5C6=CC=C(C=C6)Cl)O)S(=O)(=O)C(F)(F)F)CCO [AZD4320] (first compound max 10 µM, 7x7, partner max 1 µM) | – | – | 0.32 | – | – | -0.067 | -0.0315 | – | -0.0929 | -0.0999 | -0.0276 | -0.0722 | -0.0615 | -0.001 | -0.0313 | – | -0.0168 | – | – | – |
| COc1nnc2ccc(N3CCC(c4ccc(OCCN5CCN(C)C(=O)[C@H]5C)cc4)CC3)nn12 [AZD5153] + CN(CC[C@H](CSC1=CC=CC=C1)NC2=C(C=C(C=C2)S(=O)(=O)NC(=O)C3=CC=C(C=C3)N4CCC(CC4)[C@H](C5=CC=CC=C5C6=CC=C(C=C6)Cl)O)S(=O)(=O)C(F)(F)F)CCO [AZD4320] (first compound max 1 µM, 7x7, partner max 1 µM) | – | – | 0.322 | – | – | 0.048 | 0.0659 | – | -0.0236 | 0.0115 | 0.0448 | -0.0119 | 0.0257 | 0.002 | 0.04 | – | 0.0929 | – | – | – |
| CCc1c2c(nc3ccc(O)cc13)-c1cc3c(c(=O)n1C2)COC(=O)[C@]3(O)CC [SN-38] + O=C(c1cc(Cc2n[nH]c(=O)c3ccccc23)ccc1F)N1CCN(C(=O)C2CC2)CC1 [Olaparib] (first compound max 0.3 µM, 7x7, partner max 10 µM) | 0.277 | 0.532 | – | 0.101 | 0.071 | 0.0521 | 0.0044 | -0.0523 | 0.0064 | – | -0.0524 | – | – | 0.0671 | – | 0.119 | -0.0419 | 0.104 | 0.0226 | 0.0059 |
| Cc1c2c(nn1C)CSCc1cc(n(C)n1)CSc1cc(c3ccccc3c1)OCCCc1c(C(=O)O)n(C)c3c-2c(Cl)ccc13 [AZD5991] + C1CN(CCC1(C(=O)N[C@@H](CCO)C2=CC=C(C=C2)Cl)N)C3=NC=NC4=C3C=CN4 [Capivasertib] (first compound max 1 µM, 7x7, partner max 3 µM) | 0.485 | 0.274 | 0.996 | -0.0261 | 0.0079 | 0.0003 | 0.0437 | 0.0007 | -0.0312 | -0.0596 | 0.0158 | 0.0559 | -0.019 | 0.0821 | -0.0294 | 0.0934 | -0.0102 | 0.0545 | – | 0.0422 |
| CC(=O)Nc1cccc(-n2c(=O)n(C3CC3)c(=O)c3c(Nc4ccc(I)cc4F)n(C)c(=O)c(C)c32)c1 [Trametinib] + Cc1nc(-c2cn3c(n2)-c2ccc(-c4cnn(C(C)(C)C(N)=O)c4)cc2OCC3)n(C(C)C)n1 [Taselisib] (first compound max 1 µM, 7x7, partner max 10 µM) | – | 0.988 | 0.949 | 0.0284 | 0.0847 | -0.0299 | 0.05 | 0.0338 | 0.0568 | -0.0198 | 0.0342 | 0.0455 | 0.0909 | 0.143 | 0.0507 | 0.24 | -0.0104 | 0.0444 | 0.0677 | 0.0968 |
